Where two headings read alike, the source gives them in different places.
How the values were obtained:
[1] = tested on: A549 cells with Kras G12S mutation; experiment: Cell proliferation inhibition experiment, 3D spheroid, CellTiter-Glo (Test Example 1); format: cell-based, human; settings: 5 days
Outline: (§1)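 NCI-H358 (800 cells/well) and A549 (400 cells/well) grown overnight as 3D spheroids in 2% FBS medium, then exposed to compound dilution series (3.16-fold, 0.1% DMSO) for 5 days. CellTiter-Glo luminescence read; inhibition relative to DMSO and blank, IC50 by four-parameter fit.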

[2] = tested on: NCI-H358 cells with Kras G12C mutation; experiment: as above; format: cell-based, human; settings: 5 days
Outline: as §1

[3] = tested on: phosphorylated ERK in MIA PaCa2 cells with Kras G12C mutation; experiment: p-ERK HTRF assay for cells (Test Example 2); format: cell-based, human
Outline: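 MIA PaCa2 cells (2.5E4/well, seeded overnight) treated 2 h with compound in a 3.16-fold series at 0.1% DMSO. Cells lysed 30 min; p-ERK read by HTRF after 4 h antibody incubation. Inhibition relative to DMSO and blank; IC50 by four-parameter fit.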

[4] = tested on: subcutaneous xenograft tumor model of MIA PaCa-2; experiment: In vivo pharmacodynamic experiment, tumor growth inhibition (Test Example 5); design: species or system BALB/c nude mice; settings: p.o., QD; for TGI: day 14
Experimental: Experimental objective: to evaluate the in vivo pharmaceutical effects of tested compounds on the subcutaneous xenograft tumor model of MIA PaCa-2.
Experimental operation: 6 to 8 weeks old female BALB/c nude mice each having the body weight of 18-20 g were chosen. MIA PaCa-2 cells were cultured in DMEM containing 10% FBS, 2.5% HS and 1% penicillin-streptomycin at 37° C. in an incubator with 5% CO2. Cells were collected. The MIA PaCa-2 cells were subcutaneously inoculated to the animals at their backs on the right, 2.0×10^6 cells (0.1 mL) for each animal. When tumor grew to 190-311 mm^3, mice with tumor having a suitable size were chosen and treated in groups, with administration dosages shown in Table 5 below. The animals were weighed on an electronic balance each day. The tumor volume was investigated by using a vernier caliper twice a week. The tumor volume was calculated by the following equation: V=0.5 a×b^2, a and b representing the long diameter and the short diameter of the tumor, respectively. The tumor volume was used to calculate a tumor growth inhibition rate (TGI), and the TGI shown in the form of a percentage was used to indicate the antineoplastic activity of a compound. The TGI was calculated by the following equation: TGI (%)=[1−avTi−0/avCi−0)]×100, with avTi−0 representing the average tumor volume of the group administrated with the compound on a specific day minus the average tumor volume of this group on the day of grouping, and avCi−0 representing the average tumor volume of the solvent control group on a specific day minus the average tumor volume of the solvent control group on the day of grouping. The tumor volume was shown in the form of an average value±standard error of mean (SEM).

[5] = Homo sapiens, MIA PaCa-2, 2 h, MIA PaCa2 cells, 2 hours with compound, read-out: p-ERK IC50
[6] = MIA PaCa2 cells, 2 hours with compound, read-out: p-ERK IC50

Compound | IC50 [1] | IC50 [2] | IC50 [3, 5] | IC50 [3, 6] | IC50 ([3]; Homo sapiens, MIA PaCa-2, 2 h, read-out: p-ERK IC50, MIA PaCa2 cells, 2 hours with compound) | Tumor Volume on Day 14 after Administration ([4]; 1 mg/kg) | TGI ([4]; 1 mg/kg) | Tumor Volume on Day 14 after Administration ([4]; 3 mg/kg) | TGI ([4]; 3 mg/kg) | Tumor Volume on Day 14 after Administration ([4]; 10 mg/kg) | TGI ([4]; 10 mg/kg) | IC50 ([3]; read-out: p-ERK IC50, MIA PaCa2 cells, 2 hours with compound) | IC50 ([1]; Homo sapiens, A549, 120 h) | IC50 ([2]; Homo sapiens, NCI-H358, 120 h)
C=CC(=O)N1CCN2c3c(c(=O)n(-c4c(C)ccnc4C(C)C)c4nc(-c5c(O)cccc5F)c(F)cc34)N(C)C(=O)[C@H]2C1 (single isomer, unassigned) [Compound Z9-2] | > 10000 nM | 15 nM | 221 nM |  |  |  |  |  |  |  |  |  |  | 
C=CC(=O)N1C[C@@H]2C(=O)N(C)c3c(c4cc(F)c(-c5c(O)cccc5F)nc4n(-c4c(C)ccnc4C(C)C)c3=O)N2C[C@H]1C (single isomer, unassigned) [Compound Z10-2] | 24600 nM | 4 nM |  | 34 nM |  |  |  |  |  |  |  |  |  | 
C=CC(=O)N1CCN2c3c(c(=O)n(-c4c(C)ccnc4C(C)C)c4nc(-c5c(O)cccc5F)c(Cl)cc34)N(C)C(=O)[C@H]2C1 (single isomer, unassigned) [Compound Z25-2] | > 30000 nM | 3 nM |  |  | 29 nM | 180.14 mm^3 | 116.2% | 62.35 mm^3 | 143.7% | 18.94 mm^3 | 154.4% |  |  | 
[2H]C([2H])([2H])N1C(=O)[C@H]2CN(C(=O)C=C)CCN2c2c1c(=O)n(-c1c(C)ccnc1C(C)C)c1nc(-c3c(O)cccc3F)c(Cl)cc21 (single isomer, unassigned) [Compound Z26-2] | > 30000 nM | 3 nM |  |  |  | 157.06 mm^3 | 121.1% | 67.66 mm^3 | 143.8% | 30.49 mm^3 | 151.1% | 62 nM |  | 
C=CC(=O)N1C[C@@H]2C(=O)N(C)c3c(c4cc(Cl)c(-c5c(O)cccc5F)nc4n(-c4c(C)ccnc4C(C)C)c3=O)N2C[C@H]1C (single isomer, unassigned) [Compound Z27-2] | 19000 nM | 1 nM |  | 11 nM |  | 140.10 mm^3 | 126.3% | 54.81 mm^3 | 145.1% | 15.16 mm^3 | 155.8% |  |  | 
C=CC(=O)N1CCN2c3c(c(=O)n(-c4c(C(C)C)ncnc4C(C)C)c4c(F)c(-c5c(O)cccc5F)c(Cl)cc34)NC(=O)[C@H]2C1 (single isomer, unassigned) [Compound Z37-1] | > 30000 nM | 0.7 nM | 11 nM |  |  | 286.12 mm^3 | 89.4% | 238.82 mm^3 | 102.8% | 210.59 mm^3 | 108.4% |  |  | 
C=CC(=O)N1CCN2c3c(c(=O)n(-c4c(C)ccnc4C(C)C)c4nc(-c5c(O)cccc5F)c(F)cc34)OC[C@H]2C1 [Compound Z1, (4aR)-3-acryloyl-11-fluoro-10-(2-fluoro-6-hydroxyphenyl)-8-(2-isopropyl-4-methylpyridin-3-yl)-1,2,3,4,4a,5-hexahydropyrazino[1′,2′:4,5][1,4]oxazino[2,3-c][1,8]naphthyridin-7(8H)-one] |  |  | 432 nM |  |  |  |  |  |  |  |  |  | > 10000 nM | 31 nM
C=CC(=O)N1CCN2c3c(c(=O)n(-c4c(C(C)C)ncnc4C(C)C)c4nc(-c5c(O)cccc5F)c(Cl)cc34)N(C)C(=O)[C@H]2C1 [Compound Z48] |  |  | 52 nM |  |  | 459.33 mm^3 | 51.2% | 148.62 mm^3 | 124.7% | 90.39 mm^3 | 138.5% |  | > 10000 nM | 3 nM
